Data from publication PMC10762035, “Molecular basis of human trace amine-associated receptor 1 activation” (Nature Communications, 2024).
Residue numbers refer to the chain shown, from its start. Values joined by “and” are separate entries in the source; they are usually repeats but may differ in a detail not shown here. Equal values may be shown once. Read-outs that look alike come from different tables or passages of the source.

Legend:
Format in all cases: cell-based
hTA1 = target: T1, hTA1 (Homo sapiens, UniProt Q96RJ0); test: GloSensor cAMP accumulation assay, concentration response, wild-type hTA1 in transfected HEK293T cells; details: for Dose-response curves for asenapine vs endogenous trace amines: log[Compound], replicate values (N=2);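 for all read-outs here: luminescence read after 30 min compound exposure at room temperature in cells preloaded with D-Luciferin, reflecting Gs-driven cAMP rise, efficacy scaled to the maximal β-PEA response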
T1 construct: expressed in transfected cells; host or cells: HEK293T
T1 sequence (Q96RJ0 1-339): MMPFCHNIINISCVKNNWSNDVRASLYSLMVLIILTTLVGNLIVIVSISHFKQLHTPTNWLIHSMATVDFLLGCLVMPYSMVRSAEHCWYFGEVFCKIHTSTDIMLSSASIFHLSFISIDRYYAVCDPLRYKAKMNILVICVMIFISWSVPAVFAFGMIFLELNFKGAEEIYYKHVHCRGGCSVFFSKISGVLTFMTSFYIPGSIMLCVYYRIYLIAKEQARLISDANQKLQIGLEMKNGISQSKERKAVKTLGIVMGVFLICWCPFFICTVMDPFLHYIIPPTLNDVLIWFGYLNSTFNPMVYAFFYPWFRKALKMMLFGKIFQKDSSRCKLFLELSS

hTA1 C5S = target: T2, hTA1 C5S (Homo sapiens, UniProt Q96RJ0, C5S); test: GloSensor cAMP accumulation assay, C5S mutant; details: for C5S - Normalized Luminescence Counts (N=2): log[Compound], single wells
T2 construct: expressed in transfected cells; host or cells: HEK293T
T2 sequence (Q96RJ0 1-339 C5S): T1 sequence (Q96RJ0 1-339) with C5S

hTA1 V184P = target: T3, hTA1 V184P (Homo sapiens, UniProt Q96RJ0, V184P); test: GloSensor cAMP accumulation assay, V184P mutant; details: for cAMP accumulation response, single replicate values (source data, Supplementary Figure 5): hTA1 V184P (N=2), log[Compound]
T3 construct: expressed in transfected cells; host or cells: HEK293T
T3 sequence (Q96RJ0 1-339 V184P): T1 sequence (Q96RJ0 1-339) with V184P

NCCc1ccc(O)cc1 [TYR, tyramine]
Dose-response curves for asenapine vs endogenous trace amines (hTA1; M = -10.522): -0.3029 and -1.148 and -1.43 and -1.798 and -1.019 and -1.397
Dose-response curves for asenapine vs endogenous trace amines (hTA1; M = -11): -0.209 (3×) and -0.6182 and 0.361 and -0.7518
Dose-response curves for asenapine vs endogenous trace amines (hTA1; M = -11.522): 0.0727 and -0.06817 and 0.2605 and -0.7073 and 0.1607 and -0.4179
Dose-response curves for asenapine vs endogenous trace amines (hTA1; M = -12): 0.0727 and 1.247 and 0.777 and -1.086 and -0.774 (2×)
Dose-response curves for asenapine vs endogenous trace amines (hTA1; M = -12.522): 0.4483 and 0.1197 and 0.3544 and -2.02 and -1.575 and -1.33
EC50 (hTA1; pEC50 values (Mean), WT hTA1, each line an independent experiment, 3 replicates, Figure 2B source data): 0.414 µM and 0.416 µM
EC50 (hTA1; pEC50 ± SEM, wt hTA1, HEK293T, n=3): 0.417 µM
EC50 (hTA1; wt hTA1, HEK293T, n=3, read-out: EC50): 0.415 µM
EC50 (hTA1 C5S; C5S, n=2, read-out: EC50): 0.418 µM
Emax (hTA1 C5S; C5S, n=2, read-out: Span ± SEM (Emax normalized to β-PEA)): 97.4 ± 4.98%
ΔpEC50 values (each mutant value - WT average), Mean (hTA1 C5S; hTA1 C5S minus WT average): 0.08447 and -0.09146
EC50 (hTA1 C5S; hTA1 C5S, mean of 3 replicates, one line per independent experiment, read-out: pEC50 values, Mean (converted)): 0.342 µM and 0.512 µM
Emax values, Mean (hTA1 C5S; hTA1 C5S, β-PEA = 100, mean of 3 replicates, one line per independent experiment): 92.4348
Emax (hTA1 C5S; hTA1 C5S, β-PEA = 100, mean of 3 replicates, one line per independent experiment, read-out: Emax values, Mean): 102%
C5S - Normalized Luminescence Counts (N=2) (hTA1 C5S; M = -5): 102.862 and 111.578 and 98.7984 and 85.7838 and 116.923 and 74.2532
C5S - Normalized Luminescence Counts (N=2) (hTA1 C5S; M = -5.522): 86.6512 and 89.3832 and 85.861 and 68.3844 and 81.1578 and 69.9034
C5S - Normalized Luminescence Counts (N=2) (hTA1 C5S; M = -6): 78.4779 and 69.4918 and 73.443 and 62.6536 and 54.2301 and 61.4799
C5S - Normalized Luminescence Counts (N=2) (hTA1 C5S; M = -6.522): 44.8815 and 51.1131 and 50.1196 and 36.2784 and 34.207 and 33.0332
C5S - Normalized Luminescence Counts (N=2) (hTA1 C5S; M = -7): 29.0315 and 24.8319 and 26.4576 and 17.7742 and 18.5337 and 19.2242
C5S - Normalized Luminescence Counts (N=2) (hTA1 C5S; M = -7.522): 7.6273 and 8.959 and 8.553 and 6.382 and 5.3461 and 5.829
reduction in potency vs wild type (hTA1 V184P; V184P): 4 fold
EC50 (hTA1 V184P; V184P, n=2, read-out: EC50): 1.49 µM
Emax (hTA1 V184P; V184P, n=2, read-out: Span ± SEM (Emax normalized to β-PEA)): 105 ± 5.68%
cAMP accumulation response, single replicate values (source data, Supplementary Figure 5) (hTA1 V184P; M = -5): 66.7204 and 110.557 and 88.2354 and 80.832 and 102.751 and 95.962
cAMP accumulation response, single replicate values (source data, Supplementary Figure 5) (hTA1 V184P; M = -5.522): 68.2965 and 82.5176 and 84.3869 and 52.6087 and 59.3978 and 71.1332
cAMP accumulation response, single replicate values (source data, Supplementary Figure 5) (hTA1 V184P; M = -6): 47.9177 and 50.0802 and 42.1633 and 41.1642 and 31.9504 and 31.2715
cAMP accumulation response, single replicate values (source data, Supplementary Figure 5) (hTA1 V184P; M = -6.522): 19.512 and 25.4864 and 24.1669 and 21.0878 and 21.7667 and 21.1848
cAMP accumulation response, single replicate values (source data, Supplementary Figure 5) (hTA1 V184P; M = -7): 8.113 and 10.3856 and 10.972 and 5.085 and 4.018 and 3.436
cAMP accumulation response, single replicate values (source data, Supplementary Figure 5) (hTA1 V184P; M = -7.522): 1.736 and 1.149 and 1.113 and 1.69 (2×) and 1.5934
cAMP accumulation response, single replicate values (source data, Supplementary Figure 5) (hTA1 V184P; M = -8): 1.479 and 2.432 and 2.102 and -0.4433 and -0.3463 and 0.1386
cAMP accumulation response, single replicate values (source data, Supplementary Figure 5) (hTA1 V184P; M = -8.522): 0.0496 and 0.8926 and 2.065 and -0.3463 and 0.4296 and -0.05538
cAMP accumulation response, single replicate values (source data, Supplementary Figure 5) (hTA1 V184P; M = -9): -0.2803 and 1.809 and 0.9293 and -0.4433 and -0.2494 (2×)
cAMP accumulation response, single replicate values (source data, Supplementary Figure 5) (hTA1 V184P; M = -9.522): -0.3536 and -0.06036 and -0.6835 and -0.05538 (2×) and 0.04161
cAMP accumulation response, single replicate values (source data, Supplementary Figure 5) (hTA1 V184P; M = -10): 0.4894 and -0.09701 and -0.5368 and 0.04161 and -0.3463 and -0.05538
cAMP accumulation response, single replicate values (source data, Supplementary Figure 5) (hTA1 V184P; M = -10.522): -0.4269 and 0.4528 and -0.94 and 0.04161 and 0.5265 and -0.05538
cAMP accumulation response, single replicate values (source data, Supplementary Figure 5) (hTA1 V184P; M = -11): 0.1229 and 0.4528 and 0.0496 and -0.2494 and -0.4433 and 0.1386
cAMP accumulation response, single replicate values (source data, Supplementary Figure 5) (hTA1 V184P; M = -11.522): -0.2436 and 1.039 and -0.2803 and 0.04161 and 0.5265 and 0.3326
cAMP accumulation response, single replicate values (source data, Supplementary Figure 5) (hTA1 V184P; M = -12): -0.1337 and -0.5368 and -0.7568 and 0.1386 and 0.5265 (2×)
cAMP accumulation response, single replicate values (source data, Supplementary Figure 5) (hTA1 V184P; M = -12.522): 1.113 and 0.5994 and -0.5368 and 1.399 and 1.302 and 1.69
EC50 (hTA1 V184P; hTA1 V184P mutant, Figure 3B source data, each grid row a separate experiment, 3 replicates, read-out: pEC50 values (Mean) (converted)): 2.18 µM and 1.02 µM
Emax values, Mean (hTA1 V184P; hTA1 V184P mutant, β-PEA set to 100, each grid row a separate experiment, 3 replicates): 99.5188
Emax (hTA1 V184P; hTA1 V184P mutant, β-PEA set to 100, each grid row a separate experiment, 3 replicates, read-out: Emax values (Mean)): 111%
